Reference: ChEMBL document CHEMBL2150882, “Discovery of a new molecular probe ML228: an activator of the hypoxia inducible factor (HIF) pathway” (Bioorg Med Chem Lett, 2012)
The source made the active and inactive calls. The calls are words filed in the database; no cut-off is given here.

How the values were obtained:
[1] = target: Mu-type opioid receptor (Homo sapiens) (UniProt P35372); test: Inhibition of human mu opioid receptor at 10 uM by radioligand displacement assay
[2] = Inhibition of proteasome chymotrypsin-like activity using Suc-LLVY-aminoluciferin as substrate by luciferase-coupled assay; type: subcellular
[3] = target: T1, Adenosine receptor A3 (Homo sapiens) (UniProt P0DMS8); test: Inhibition of human adenosine receptor A3 at 10 uM by radioligand displacement assay
T1 sequence (whole entry): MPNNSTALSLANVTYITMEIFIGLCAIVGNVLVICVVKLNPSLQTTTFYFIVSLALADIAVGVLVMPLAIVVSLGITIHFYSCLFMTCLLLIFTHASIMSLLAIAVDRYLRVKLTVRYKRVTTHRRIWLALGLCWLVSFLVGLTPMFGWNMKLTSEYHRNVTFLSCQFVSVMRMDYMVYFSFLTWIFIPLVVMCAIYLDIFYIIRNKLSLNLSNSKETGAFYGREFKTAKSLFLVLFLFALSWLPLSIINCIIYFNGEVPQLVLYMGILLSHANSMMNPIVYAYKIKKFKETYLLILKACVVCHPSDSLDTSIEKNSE

[4] = target: Sodium-dependent dopamine transporter (Homo sapiens) (UniProt Q01959); test: Inhibition of human DAT at 10 uM by radioligand displacement assay
hERG (KCNH2) = hERG (KCNH2) (Homo sapiens, UniProt Q12809); test: Inhibition of human ERG at 10 uM by radioligand displacement assay
[5] = target: 5-hydroxytryptamine receptor 2B (Homo sapiens) (UniProt P41595); test: Inhibition of human 5HT2B at 10 uM by radioligand displacement assay
Rattus norvegicus [6] = species: Rattus norvegicus; test: Inhibition of rat sodium channel site 2 at 10 uM by radioligand displacement assay
[7] = target: T2, Alpha-1D adrenergic receptor (Homo sapiens) (UniProt P25100); test: Inhibition of human alpha1D adrenergic receptor at 10 uM by radioligand displacement assay
T2 sequence (whole entry): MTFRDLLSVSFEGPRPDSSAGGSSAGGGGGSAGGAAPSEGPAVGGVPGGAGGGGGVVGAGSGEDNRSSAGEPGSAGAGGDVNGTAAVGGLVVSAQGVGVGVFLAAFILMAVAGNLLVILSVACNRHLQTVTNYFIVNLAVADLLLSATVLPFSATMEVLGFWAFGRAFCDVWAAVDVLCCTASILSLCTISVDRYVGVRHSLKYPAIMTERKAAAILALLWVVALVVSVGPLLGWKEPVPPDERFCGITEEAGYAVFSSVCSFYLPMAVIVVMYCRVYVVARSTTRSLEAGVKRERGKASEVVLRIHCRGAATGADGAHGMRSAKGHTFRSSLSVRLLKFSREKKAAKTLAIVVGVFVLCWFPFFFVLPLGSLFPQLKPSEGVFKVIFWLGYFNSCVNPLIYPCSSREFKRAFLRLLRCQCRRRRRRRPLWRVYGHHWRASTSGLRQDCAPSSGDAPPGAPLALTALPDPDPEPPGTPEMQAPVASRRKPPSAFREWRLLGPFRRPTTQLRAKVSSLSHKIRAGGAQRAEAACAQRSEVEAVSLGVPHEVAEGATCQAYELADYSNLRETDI

[8] = target: T3, Alpha-2A adrenergic receptor (Homo sapiens) (UniProt P08913); test: Inhibition of human alpha2A adrenergic receptor at 10 uM by radioligand displacement assay
T3 sequence (whole entry): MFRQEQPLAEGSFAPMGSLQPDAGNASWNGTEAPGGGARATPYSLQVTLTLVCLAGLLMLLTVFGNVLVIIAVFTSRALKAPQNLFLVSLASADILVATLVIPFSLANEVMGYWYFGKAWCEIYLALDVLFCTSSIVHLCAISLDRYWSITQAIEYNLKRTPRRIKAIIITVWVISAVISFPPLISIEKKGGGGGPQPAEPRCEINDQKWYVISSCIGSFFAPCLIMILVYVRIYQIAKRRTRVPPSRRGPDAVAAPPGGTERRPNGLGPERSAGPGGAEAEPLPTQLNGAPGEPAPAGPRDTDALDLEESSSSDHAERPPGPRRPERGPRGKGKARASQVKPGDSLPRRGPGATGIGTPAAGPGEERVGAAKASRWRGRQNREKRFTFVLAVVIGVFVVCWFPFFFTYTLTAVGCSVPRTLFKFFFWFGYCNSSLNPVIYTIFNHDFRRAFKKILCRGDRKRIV

Rattus norvegicus [9] = species: Rattus norvegicus; test: Inhibition of rat L-type calcium channel dihydropyridine binding site at 10 uM by radioligand displacement assay
[10] = target: D(1A) dopamine receptor (Homo sapiens) (UniProt P21728); test: Inhibition of human dopamine D1 receptor at 10 uM by radioligand displacement assay
[11] = target: D(3) dopamine receptor (Homo sapiens) (UniProt P35462); test: Inhibition of human dopamine D3 receptor at 10 uM by radioligand displacement assay
[12] = target: Histamine H1 receptor (Homo sapiens) (UniProt P35367); test: Inhibition of human histamine H1 receptor at 10 uM by radioligand displacement assay
Homo sapiens = species: Homo sapiens; test: Inhibition of human melatonin MT1 receptor at 10 uM by radioligand displacement assay
[13] = target: Sodium-dependent noradrenaline transporter (Homo sapiens) (UniProt P23975); test: Inhibition of human NET at 10 uM by radioligand displacement assay
[14] = target: Kappa-type opioid receptor (Homo sapiens) (UniProt P41145); test: Inhibition of human kappa opioid receptor at 10 uM by radioligand displacement assay
[15] = target: Prostaglandin E2 receptor EP4 subtype (Homo sapiens) (UniProt P35408); test: Inhibition of human prostanoid EP4 receptor at 10 uM by radioligand displacement assay
U2OS [16] = test: Cytotoxicity against human U2OS cells expressing human HIF1alpha by CellTiterGlo assay in presence of 50 uM iron; type: cell-based
U2OS [17] = test: Cytotoxicity against human U2OS cells expressing human HIF1alpha by CellTiterGlo assay in presence of 50 uM zinc; type: cell-based

Sequence of Mu-type opioid receptor (Homo sapiens) (P35372 whole entry): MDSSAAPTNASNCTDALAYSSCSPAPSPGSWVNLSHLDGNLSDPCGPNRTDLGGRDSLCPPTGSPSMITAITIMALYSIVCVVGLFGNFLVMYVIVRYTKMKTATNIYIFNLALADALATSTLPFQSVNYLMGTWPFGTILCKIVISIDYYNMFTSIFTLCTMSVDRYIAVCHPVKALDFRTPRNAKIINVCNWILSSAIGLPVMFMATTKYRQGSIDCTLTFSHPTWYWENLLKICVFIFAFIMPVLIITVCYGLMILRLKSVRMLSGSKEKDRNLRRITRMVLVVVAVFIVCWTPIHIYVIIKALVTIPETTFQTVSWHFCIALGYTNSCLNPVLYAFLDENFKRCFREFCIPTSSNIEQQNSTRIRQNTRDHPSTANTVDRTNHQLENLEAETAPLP
Sequence of Histamine H1 receptor (Homo sapiens) (P35367 whole entry): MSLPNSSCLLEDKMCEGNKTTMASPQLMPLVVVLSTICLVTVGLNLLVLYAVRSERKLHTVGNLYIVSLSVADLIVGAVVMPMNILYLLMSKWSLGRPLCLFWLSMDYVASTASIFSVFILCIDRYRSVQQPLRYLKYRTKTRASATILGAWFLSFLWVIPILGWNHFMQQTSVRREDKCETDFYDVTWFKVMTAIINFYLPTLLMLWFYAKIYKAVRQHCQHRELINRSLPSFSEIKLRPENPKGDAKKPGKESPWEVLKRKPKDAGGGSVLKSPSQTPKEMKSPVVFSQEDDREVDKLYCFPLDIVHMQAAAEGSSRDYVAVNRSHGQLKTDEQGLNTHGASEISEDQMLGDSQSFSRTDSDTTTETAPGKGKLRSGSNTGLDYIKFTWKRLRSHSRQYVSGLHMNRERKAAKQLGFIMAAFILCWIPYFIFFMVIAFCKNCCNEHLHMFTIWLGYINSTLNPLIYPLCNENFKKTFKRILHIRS
Sequence of D(1A) dopamine receptor (Homo sapiens) (P21728 whole entry): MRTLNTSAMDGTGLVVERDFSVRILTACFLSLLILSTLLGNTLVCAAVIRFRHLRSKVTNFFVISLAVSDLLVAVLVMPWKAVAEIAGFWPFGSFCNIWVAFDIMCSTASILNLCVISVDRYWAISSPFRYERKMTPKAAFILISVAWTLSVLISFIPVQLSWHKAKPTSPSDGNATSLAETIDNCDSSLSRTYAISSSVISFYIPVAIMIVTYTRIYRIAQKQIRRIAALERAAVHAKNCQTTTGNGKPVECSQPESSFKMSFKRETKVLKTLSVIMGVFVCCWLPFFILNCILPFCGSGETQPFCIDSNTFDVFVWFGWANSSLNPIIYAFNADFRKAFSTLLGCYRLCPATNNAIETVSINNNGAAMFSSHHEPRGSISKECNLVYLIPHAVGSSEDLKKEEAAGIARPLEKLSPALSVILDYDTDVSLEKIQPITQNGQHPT
Sequence of D(3) dopamine receptor (Homo sapiens) (P35462 whole entry): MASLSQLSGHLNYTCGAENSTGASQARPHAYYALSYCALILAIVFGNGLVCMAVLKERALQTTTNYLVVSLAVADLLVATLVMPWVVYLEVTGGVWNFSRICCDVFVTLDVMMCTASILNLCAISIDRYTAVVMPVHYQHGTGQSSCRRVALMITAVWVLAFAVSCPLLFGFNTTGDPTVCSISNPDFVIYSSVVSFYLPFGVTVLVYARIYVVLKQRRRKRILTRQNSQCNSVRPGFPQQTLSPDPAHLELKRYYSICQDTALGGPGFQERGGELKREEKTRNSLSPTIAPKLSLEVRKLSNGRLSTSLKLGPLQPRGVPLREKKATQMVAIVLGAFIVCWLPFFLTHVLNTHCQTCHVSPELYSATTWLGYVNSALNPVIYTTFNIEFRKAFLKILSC
Sequence of Sodium-dependent noradrenaline transporter (Homo sapiens) (P23975 whole entry): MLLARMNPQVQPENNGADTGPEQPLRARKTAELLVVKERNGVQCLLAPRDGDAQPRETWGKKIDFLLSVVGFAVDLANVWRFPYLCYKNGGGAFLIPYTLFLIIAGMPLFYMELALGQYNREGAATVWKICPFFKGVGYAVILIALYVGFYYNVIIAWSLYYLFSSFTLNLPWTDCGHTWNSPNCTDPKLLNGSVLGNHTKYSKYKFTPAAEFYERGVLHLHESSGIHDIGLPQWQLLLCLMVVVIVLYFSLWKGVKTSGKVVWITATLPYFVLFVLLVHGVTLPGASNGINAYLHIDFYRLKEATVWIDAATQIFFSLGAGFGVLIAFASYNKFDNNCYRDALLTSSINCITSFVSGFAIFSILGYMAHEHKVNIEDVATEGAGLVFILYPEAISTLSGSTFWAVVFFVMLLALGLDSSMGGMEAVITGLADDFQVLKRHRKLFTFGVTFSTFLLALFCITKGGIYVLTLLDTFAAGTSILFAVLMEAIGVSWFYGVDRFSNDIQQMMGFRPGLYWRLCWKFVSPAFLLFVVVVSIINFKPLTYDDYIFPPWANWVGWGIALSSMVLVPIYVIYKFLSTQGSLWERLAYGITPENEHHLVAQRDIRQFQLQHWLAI
Sequence of Prostaglandin E2 receptor EP4 subtype (Homo sapiens) (P35408 whole entry): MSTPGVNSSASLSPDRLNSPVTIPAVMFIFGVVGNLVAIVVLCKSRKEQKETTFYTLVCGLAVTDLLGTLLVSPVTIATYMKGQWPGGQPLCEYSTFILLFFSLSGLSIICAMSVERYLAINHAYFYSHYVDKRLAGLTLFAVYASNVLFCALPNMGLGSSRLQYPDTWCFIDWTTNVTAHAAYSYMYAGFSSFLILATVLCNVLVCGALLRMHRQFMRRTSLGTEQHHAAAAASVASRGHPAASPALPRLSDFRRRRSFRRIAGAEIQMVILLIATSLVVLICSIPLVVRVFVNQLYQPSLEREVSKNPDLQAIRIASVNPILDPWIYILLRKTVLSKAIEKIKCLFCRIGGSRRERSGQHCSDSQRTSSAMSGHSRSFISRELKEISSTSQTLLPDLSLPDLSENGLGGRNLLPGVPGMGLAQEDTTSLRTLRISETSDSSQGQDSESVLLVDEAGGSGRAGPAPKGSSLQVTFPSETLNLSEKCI
Sequence of 5-hydroxytryptamine receptor 2B (Homo sapiens) (P41595 whole entry): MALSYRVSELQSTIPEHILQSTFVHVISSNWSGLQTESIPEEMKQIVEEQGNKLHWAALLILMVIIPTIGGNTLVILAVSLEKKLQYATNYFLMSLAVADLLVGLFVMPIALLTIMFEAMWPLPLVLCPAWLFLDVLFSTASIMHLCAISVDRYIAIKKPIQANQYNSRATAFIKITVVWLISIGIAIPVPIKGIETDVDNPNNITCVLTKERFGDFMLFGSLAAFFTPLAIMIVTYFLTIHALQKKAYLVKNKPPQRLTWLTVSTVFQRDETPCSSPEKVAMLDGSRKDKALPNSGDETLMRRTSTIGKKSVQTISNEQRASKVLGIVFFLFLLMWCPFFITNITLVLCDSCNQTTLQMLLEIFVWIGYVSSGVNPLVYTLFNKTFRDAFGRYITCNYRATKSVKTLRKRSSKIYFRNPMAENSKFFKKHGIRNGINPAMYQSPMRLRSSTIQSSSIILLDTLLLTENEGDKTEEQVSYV
Sequence of hERG (KCNH2) (Q12809 whole entry): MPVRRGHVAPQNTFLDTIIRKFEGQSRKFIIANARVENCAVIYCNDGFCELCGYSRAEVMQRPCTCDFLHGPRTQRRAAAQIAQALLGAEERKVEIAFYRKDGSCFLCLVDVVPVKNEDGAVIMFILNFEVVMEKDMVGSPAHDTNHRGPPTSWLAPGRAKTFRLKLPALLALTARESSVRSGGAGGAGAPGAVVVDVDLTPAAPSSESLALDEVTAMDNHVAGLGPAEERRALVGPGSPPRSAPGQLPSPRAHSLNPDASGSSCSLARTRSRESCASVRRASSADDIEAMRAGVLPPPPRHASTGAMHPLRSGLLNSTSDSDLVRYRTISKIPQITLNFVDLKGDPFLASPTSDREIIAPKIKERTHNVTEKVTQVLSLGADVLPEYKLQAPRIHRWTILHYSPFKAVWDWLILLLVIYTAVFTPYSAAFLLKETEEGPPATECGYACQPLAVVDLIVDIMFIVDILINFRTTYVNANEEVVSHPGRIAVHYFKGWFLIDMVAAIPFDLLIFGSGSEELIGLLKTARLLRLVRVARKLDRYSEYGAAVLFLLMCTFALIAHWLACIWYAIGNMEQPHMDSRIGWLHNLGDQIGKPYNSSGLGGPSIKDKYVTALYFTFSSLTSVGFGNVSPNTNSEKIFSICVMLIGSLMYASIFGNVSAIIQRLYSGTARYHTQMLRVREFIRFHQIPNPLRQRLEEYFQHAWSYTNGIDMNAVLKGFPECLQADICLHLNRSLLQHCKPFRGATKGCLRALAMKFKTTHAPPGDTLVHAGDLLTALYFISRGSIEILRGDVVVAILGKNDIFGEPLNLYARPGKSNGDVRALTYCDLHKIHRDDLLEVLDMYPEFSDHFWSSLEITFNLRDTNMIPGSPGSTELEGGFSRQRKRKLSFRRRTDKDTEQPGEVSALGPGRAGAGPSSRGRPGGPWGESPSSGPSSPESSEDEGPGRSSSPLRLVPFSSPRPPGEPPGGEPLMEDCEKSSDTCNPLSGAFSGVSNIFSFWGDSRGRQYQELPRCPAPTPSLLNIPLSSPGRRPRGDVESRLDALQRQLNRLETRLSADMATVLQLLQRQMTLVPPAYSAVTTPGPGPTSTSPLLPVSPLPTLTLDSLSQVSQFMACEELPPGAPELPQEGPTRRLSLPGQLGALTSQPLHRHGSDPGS
Sequence of Kappa-type opioid receptor (Homo sapiens) (P41145 whole entry): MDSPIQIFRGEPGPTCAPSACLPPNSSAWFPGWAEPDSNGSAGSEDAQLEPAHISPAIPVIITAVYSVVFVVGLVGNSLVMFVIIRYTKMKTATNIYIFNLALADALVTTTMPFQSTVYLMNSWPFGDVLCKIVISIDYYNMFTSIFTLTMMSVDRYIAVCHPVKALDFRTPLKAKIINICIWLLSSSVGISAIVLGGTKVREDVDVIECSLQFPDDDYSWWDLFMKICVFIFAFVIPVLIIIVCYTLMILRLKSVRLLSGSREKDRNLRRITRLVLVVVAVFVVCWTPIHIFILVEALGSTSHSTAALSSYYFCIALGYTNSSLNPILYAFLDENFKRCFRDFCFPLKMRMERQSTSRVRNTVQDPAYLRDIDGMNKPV

O=C(NCCCCO)c1cc(-c2ccccc2)on1
inhibition [1]: inactive

O=C(NCC1CC1)c1cc(-c2ccccc2)on1
inhibition [1]: inactive

O=C(NCCCN1CCOCC1)c1cc(-c2ccccc2)on1
inhibition [1]: inactive

CCCCNC(=O)c1cc(-c2ccc(F)cc2)on1
inhibition [1]: inactive

O=C(NCCCn1ccnc1)c1cc(-c2ccccc2)on1
inhibition [1]: inactive

c1ccc(-c2ccc(CNc3nc(-c4ccccn4)nnc3-c3ccccc3)cc2)cc1
inhibition [2]: inactive
inhibition [3]: 80%
inhibition [4]: 87%
inhibition [1]: 85%
inhibition at 10 µM (hERG (KCNH2)): 86%
inhibition [5]: 92%
inhibition (Rattus norvegicus [6]): 105%
inhibition [7]: 53%
inhibition [8]: 57%
inhibition (Rattus norvegicus [9]): 56%
inhibition [10]: 54%
inhibition [11]: 67%
inhibition [12]: 65%
inhibition (Homo sapiens): 51%
inhibition [13]: 67%
inhibition [14]: 71%
inhibition [15]: 53%
Activity (U2OS [16]): Non-toxic
Activity (U2OS [17]): Non-toxic
